The values that follow come from patent US11613531B2, “Inhibitors of RHO associated coiled-coil containing protein kinase” (Kadmon Corporation, LLC, priority 2017, dated 2023).

Like-named read-outs stand apart in the source and are kept apart here. A value given as a limit tells only on which side of the number the result lay.

Experiment [1] concerns the target Recombinant ROCK2 (amino acids 1-552) (Homo sapiens (Human), UniProt O75116). Briefly: Z′-Lyte kinase assay, ROCK2. The settings on record: for inhibition at 0.5 µM: 0.5 μM compound; for inhibition at 0.5 µM / inhibition at 1 µM / inhibition at 3 µM: read-out: ROCK2 % inh. @ [conc]; for inhibition at 1 µM: 1 μM compound; for inhibition at 3 µM: 3 μM compound. It counts as biochemical. A digest of the protocol: (§1)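 IC50s derive from nonlinear curve fits over a 9-point, 2-fold dilution series, with single-point inhibition at 1 μM expressed relative to DMSO. Activity of truncated human ROCK1 (residues 1-535) and ROCK2 (residues 1-552) measured with the Z′-Lyte kinase format.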

The test system of experiment [2] is ppMlc (T18/S19) levels in A7R5 cells. Briefly: A7R5 in-cell ELISA (pMLC). It counts as cell-based, Rat. The settings on record: Rattus norvegicus, A7R5, A7R5 cells; for inhibition at 1 µM: 1 μM compound; for inhibition at 1 µM / inhibition at 10 µM: read-out: pMLC % inh A7R5 @ [conc]; for inhibition at 10 µM: 10 μM compound. A digest of the protocol: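 Cellular IC50 came from a nonlinear regression fit of ppMlc (T18/S19) signal, read by colorimetric in-cell ELISA on fixed cells. Rat A7R5 aortic smooth muscle cells had been exposed for 90 min to compounds in 9-point 2-fold serial dilution, 24 h after seeding.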

Experiment [3] has as its system human ACTA2 gene promoter luciferase reporter in NIH3T3 cells. In words: NIH3T3 Acta2-promoter driven-luciferase assay. The settings on record: NIH3T3, 24 h, read-out: NIH3T3 Acta2-luc, IC50. The class given is cell-based. Here is the method:
NIH3T3 Cells Acta2-Promoter Driven-Luciferase Assay.
A NIH3T3 cell line stably expressing a luciferase reporter driven by the human ACTA2 gene promoter (−1000-1 bp) was established (NIH3T3-Acta2-luciferase). The cells were plated to confluence and treated with the test compounds plus TGFβ1 for 24 hr. Cells were then lysed and luciferase activity was measured using the LightSwitch luciferase kit from Active Motif.
In vitro activities for the compounds were measured with Z′-lyte kinase kit (ThermoFisher Scientific). The percent inhibition rate was calculated by normalizing the kinase activity value obtained with 1 μM compound treatment against DMSO control value and then applied to the formula, [1-(compound/DMSO)]×100%. IC50s were calculated using the nonlinear regression curve fit function of the GraphPad Prism software with kinase activities data measured with 9 points 2-fold serial dilution of compounds treatment. In cell pMLC IC50s were calculated with data obtained from A7R5 cell experiments. A7R5 cells were treated with 9 points 2-fold serial dilution of compounds and ppMlc (T18/S19) levels were determined to calculate cellular IC50 values of the compounds using the nonlinear regression curve fit function of the GraphPad Prism software. NIH3T3 cells stably expressing ACTA2-promoter-driven-luciferase were applied to measure ROCK compounds functional IC50s in cells. Cells were plated in 96 well plates to confluence and treated with 9 points serial dilution of compounds in combination with TGFβ1 for 24 hr. Luciferase activities were measured and compound's IC50s were calculated using the nonlinear regression curve fit function of the GraphPad Prism software.
ROCK inhibitors can be effectively rank ordered by ACTA2-promoter-driven-luciferase reporter cell assay. NIH3T3 cells stably expressing ACTA2-promoter-driven-luciferase were plated in 96 well plates to confluence and treated with 9 points serial dilution of compounds in combination with TGFβ1 for 24 hr. Luciferase activities were measured and compound's IC50s were calculated. By this assay multiple compounds of the invention gave IC50s under 200 nM.

For experiment [4], the target named is Recombinant ROCK1 (amino acids 1-535) (Homo sapiens (Human), UniProt Q13464). Briefly: Z′-Lyte kinase assay, ROCK1. The class given is biochemical. The settings on record: for inhibition at 3 µM: 3 μM compound; for inhibition at 3 µM / inhibition at 0.5 µM: read-out: ROCK1 % inh. @ [conc]; for inhibition at 0.5 µM: 0.5 μM compound. A digest of the protocol:
as §1

Where [5] appears, read: NIH3T3 cells, plus TGFβ1 for 24 hr.
Setting [6] is: 9 points 2-fold serial dilution.

Recombinant ROCK2 (amino acids 1-552), sequence (O75116 1-552): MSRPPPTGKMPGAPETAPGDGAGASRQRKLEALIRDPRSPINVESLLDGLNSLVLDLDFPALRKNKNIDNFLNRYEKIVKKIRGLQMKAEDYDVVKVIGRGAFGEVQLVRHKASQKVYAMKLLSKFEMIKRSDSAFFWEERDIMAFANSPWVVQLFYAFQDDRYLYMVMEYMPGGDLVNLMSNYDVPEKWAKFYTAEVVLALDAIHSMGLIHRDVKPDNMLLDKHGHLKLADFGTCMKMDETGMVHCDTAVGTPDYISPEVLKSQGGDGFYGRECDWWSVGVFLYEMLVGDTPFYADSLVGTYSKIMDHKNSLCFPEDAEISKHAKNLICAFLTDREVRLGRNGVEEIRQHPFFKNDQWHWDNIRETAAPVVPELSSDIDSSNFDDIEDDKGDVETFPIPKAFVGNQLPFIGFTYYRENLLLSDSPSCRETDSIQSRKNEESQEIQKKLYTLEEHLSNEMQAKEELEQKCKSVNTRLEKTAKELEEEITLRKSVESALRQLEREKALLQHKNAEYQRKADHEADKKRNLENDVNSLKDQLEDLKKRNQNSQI
Recombinant ROCK1 (amino acids 1-535), sequence (Q13464 1-535): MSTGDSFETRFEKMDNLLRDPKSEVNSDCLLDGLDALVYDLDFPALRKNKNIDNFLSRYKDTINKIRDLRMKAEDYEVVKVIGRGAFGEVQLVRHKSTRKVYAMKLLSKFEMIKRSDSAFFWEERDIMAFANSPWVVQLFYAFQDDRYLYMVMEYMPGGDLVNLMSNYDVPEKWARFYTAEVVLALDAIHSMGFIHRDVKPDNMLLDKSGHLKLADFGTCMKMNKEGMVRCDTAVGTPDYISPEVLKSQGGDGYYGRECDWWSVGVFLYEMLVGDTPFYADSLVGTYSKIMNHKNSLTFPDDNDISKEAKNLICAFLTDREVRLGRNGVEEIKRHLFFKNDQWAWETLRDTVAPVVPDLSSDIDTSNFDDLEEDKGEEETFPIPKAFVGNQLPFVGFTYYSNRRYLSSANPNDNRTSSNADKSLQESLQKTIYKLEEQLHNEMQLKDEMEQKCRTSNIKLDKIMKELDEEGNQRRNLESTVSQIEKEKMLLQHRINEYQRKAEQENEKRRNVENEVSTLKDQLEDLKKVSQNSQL

As to `CCOC(=O)[C@H]1N[C@@H]2C[C@@H]1CN(c1ncc(Cl)c(Nc3ccc4[nH]ncc4c3)n1)C2` (stereo in doubt) [Example 326, Ethyl 3-(4-((1H-indazol-5-yl)amino)-5-chloropyrimidin-2-yl)-3,6-diazabicyclo[3.2.1]octane-7-carboxylate], the IC50 in experiment [1] is 305 nM; in experiment [2], 6290 nM; in experiment [3] (with TGFβ1, 24 hr), above 10000 nM. The inhibition at 0.5 µM in experiment [1] came out at 64%.
With `c1cc(-c2ccc(Nc3nc(N4C5CCC4CNC5)nc4c3COCC4)cc2)ccn1` [Example 37, 2-(3,8-diazabicyclo[3.2.1]octan-8-yl)-N-(4-(pyridin-4-yl)phenyl)-7,8-dihydro-5H-pyrano[4,3-d]pyrimidin-4-amine], the IC50 in experiment [2] is 7060 nM; in experiment [3] (with TGFβ1, 24 hr), above 10000 nM.
With `c1cc(Nc2ccc3[nH]ncc3c2)nc(N2CC[C@@H]3NC[C@@H]3C2)n1` [Example 82, N-(2-((1R,6S)-3,7-diazabicyclo[4.2.0]octan-3-yl)pyrimidin-4-yl)-1H-indazol-5-amine], the IC50 in experiment [1] came out at 12 nM; in experiment [2], 572 nM; in experiment [3] (with TGFβ1, 24 hr), 3420 nM. In experiment [2], the inhibition at 1 µM is 42.5%.
Take `Cc1cnc(N2CCNC(C(C)C)C2)nc1Nc1ccc2[nH]ncc2c1` (centres unmarked) [Example 101, N-(2-(3-isopropylpiperazin-1-yl)-5-methylpyrimidin-4-yl)-1H-indazol-5-amine]: in experiment [2], the inhibition at 10 µM was found to be 19.2%. The IC50 in experiment [3] (setting [5]) was found to be 7530 nM.
`Cc1cc(Nc2ccc3[nH]ncc3c2)nc(N2CCNCC(C)C2)n1` (centres unmarked) [Example 118, N-(6-methyl-2-(6-methyl-1,4-diazepan-1-yl)pyrimidin-4-yl)-1H-indazol-5-amine]: the inhibition at 1 µM was found to be 95.6% in experiment [1] and 32.9% in experiment [2]. The IC50 in experiment [1] (setting [6]) came to 90 nM; in experiment [2] (ppMlc (T18/S19)) it was 382 nM; in experiment [3] (setting [5]), 3730 nM.
With `Cc1cc(Nc2ccc3[nH]ncc3c2)nc(N2CC3CNC(C3)C2)n1` (centres unmarked) [Example 129, N-(2-(3,6-diazabicyclo[3.2.1]octan-3-yl)-6-methylpyrimidin-4-yl)-1H-indazol-5-amine], the IC50 in experiment [1] is 18 nM; in experiment [2] it was 377 nM; in experiment [3] (with TGFβ1, 24 hr) it was 2920 nM. The inhibition at 1 µM stood at 101% in experiment [1] and 50.6% in experiment [2].
Regarding `Cc1cc(Nc2ccc3[nH]ncc3c2)nc(N2CCC3NCC3C2)n1` (centres unmarked) [Example 135, N-(2-(3,7-diazabicyclo[4.2.0]octan-3-yl)-6-methylpyrimidin-4-yl)-1H-indazol-5-amine], the IC50 amounted to 9.7 nM in experiment [1]; 400 nM in experiment [2]; 2070 nM in experiment [3] (with TGFβ1, 24 hr). Moreover, the inhibition at 1 µM in experiment [2] is 48.4%.
With `CCC1CCN(c2nccc(Nc3ccc(-c4ccncc4)cc3)n2)CCN1` (centres unmarked) [Example 249, 2-(5-ethyl-1,4-diazepan-1-yl)-N-(4-(pyridin-4-yl)phenyl)pyrimidin-4-amine], the IC50 in experiment [4] (setting [6]) and in experiment [1] (setting [6]) was above 1000 nM in each case. Further, the inhibition at 10 µM in experiment [2] turned out to be 33.6%.
Regarding `CC(C)C1CCN(c2nccc(Nc3ccc(-c4ccncc4)cc3)n2)CCN1` (centres unmarked) [Example 250, 2-(5-isopropyl-1,4-diazepan-1-yl)-N-(4-(pyridin-4-yl)phenyl)pyrimidin-4-amine], the IC50 in experiment [4] (setting [6]) was above 1000 nM; in experiment [1] (setting [6]), above 1000 nM; in experiment [2] (ppMlc (T18/S19)) it was 5440 nM. In addition, the inhibition at 10 µM in experiment [2] was 50.4%.
Turning to `CC(C)C1CN(c2nccc(Nc3ccc(-c4ccncc4)cc3)n2)CCCN1` (centres unmarked) [Example 251, 2-(3-isopropyl-1,4-diazepan-1-yl)-N-(4-(pyridin-4-yl)phenyl)pyrimidin-4-amine], the IC50 was determined as 57 nM in experiment [4] (setting [6]), 160 nM in experiment [1] (setting [6]) and 614 nM in experiment [2] (ppMlc (T18/S19)). In addition, the inhibition at 10 µM in experiment [2] is 66.9%.
With `c1ccc(C2CCN(c3nccc(Nc4ccc(-c5ccncc5)cc4)n3)CCN2)cc1` (centres unmarked) [Example 271, 2-(5-phenyl-1,4-diazepan-1-yl)-N-(4-(pyridin-4-yl)phenyl)pyrimidin-4-amine], the IC50 in experiment [4] (setting [6]) and in experiment [1] (setting [6]) was above 1000 nM in each case. In addition, the inhibition at 10 µM in experiment [2] came out at 28.3%.
Turning to `c1ccc2c(Nc3ccc(-c4ccncc4)cc3)nc(N3CCCNCC3)nc2c1` [Example 272, 2-(1,4-diazepan-1-yl)-N-(4-(pyridin-4-yl)phenyl)quinazolin-4-amine], the inhibition at 3 µM was determined as 88.5% in experiment [4] and 85.8% in experiment [1]. In experiment [2], the inhibition at 10 µM turned out to be 53.3%.
For `c1cc(-c2ccc(Nc3ccnc(N4CCCNCC4)n3)cc2)ccn1` [Example 273, 2-(1,4-diazepan-1-yl)-N-(4-(pyridin-4-yl)phenyl)pyrimidin-4-amine], in that order: 89.1%, 85.6% and 44.1%.
Turning to `c1cc(-c2ccc(Nc3nc(N4C5CCC4CNC5)nc4c3COC4)cc2)ccn1` [Example 281, 2-(3,8-diazabicyclo[3.2.1]octan-8-yl)-N-(4-(pyridin-4-yl)phenyl)-5,7-dihydrofuro[3,4-d]pyrimidin-4-amine], in experiment [4], the inhibition at 0.5 µM is 14%. Besides, in experiment [1], the IC50 worked out at 2570 nM and the inhibition at 0.5 µM came to 10%. In experiment [2], the inhibition at 1 µM is 10.4%.
As for `c1cc2[nH]ncc2cc1Nc1nc(N2C3CNCC2C3)nc2c1COC2` [Example 283, 2-(3,6-diazabicyclo[3.1.1]heptan-6-yl)-N-(1H-indazol-5-yl)-5,7-dihydrofuro[3,4-d]pyrimidin-4-amine], the inhibition at 0.5 µM in experiment [4] is 101%. Further, in experiment [1], the IC50 was below 0.1 nM and the inhibition at 0.5 µM was 101%. Also, the inhibition at 1 µM in experiment [2] was 25.8%.
For `c1cc2[nH]ncc2cc1Nc1nc(N2CC3CC2CN3)nc2c1COC2` (centres unmarked) [Example 284, 2-(2,5-diazabicyclo[2.2.1]heptan-2-yl)-N-(1H-indazol-5-yl)-5,7-dihydrofuro[3,4-d]pyrimidin-4-amine], the inhibition at 0.5 µM amounted to 25% in experiment [4] and 30% in experiment [1]. Also, the inhibition at 1 µM in experiment [2] is 24.1%.
As for `CN1CCc2c(nc(N3C4CNCC3C4)nc2Nc2ccc3[nH]ncc3c2)C1` [Example 313, 2-(3,6-diazabicyclo[3.1.1]heptan-6-yl)-N-(1H-indazol-5-yl)-7-methyl-5,6,7,8-tetrahydropyrido[3,4-d]pyrimidin-4-amine], the values for the inhibition at 0.5 µM in experiment [4] and in experiment [1] were 94% and 99%, respectively. Also, the IC50 in experiment [1] came to 14 nM; in experiment [2] it was 3030 nM.
On to `CNc1cc(Nc2ccc3[nH]ncc3c2)nc(N2C3CCC2CNC3)n1` [Example 329, 2-(3,8-diazabicyclo[3.2.1]octan-8-yl)-N4-(1H-indazol-5-yl)-N6-methylpyrimidine-4,6-diamine], for which the IC50 in experiment [1] was determined as 1.8 nM; in experiment [3] (with TGFβ1, 24 hr), 90 nM.
Turning to `CN(C)c1cc(Nc2cc3cn[nH]c3cc2F)nc(N2C3CCC2CNC3)n1` [Example 331, 2-(3,8-diazabicyclo[3.2.1]octan-8-yl)-N4-(6-fluoro-1H-indazol-5-yl)-N6,N6-dimethylpyrimidine-4,6-diamine], the IC50 in experiment [1] worked out at 5.9 nM; in experiment [3] (with TGFβ1, 24 hr) it was 318 nM.
On to `c1cncc(-c2cccc(Nc3ccnc(N4CCNCC4)n3)c2)c1` [Example 346, 2-(piperazin-1-yl)-N-(3-(pyridin-3-yl)phenyl)pyrimidin-4-amine], for which the IC50 in experiment [4] and in experiment [1] was above 10000 nM each time. In addition, in experiment [2], the inhibition at 10 µM was determined as 12.3%.

One may read the IC50 as the concentration that gives 50% inhibition.
